From ChEMBL document CHEMBL2390819, “A convenient synthesis of GDP-D-rhamnose: the donor substrate for D-rhamnosyltransferase WbpZ from Pseudomonas aeruginosa PAO1” (Bioorg Med Chem Lett, 2013)
Calls of active or inactive are those of the source. The rule behind the calls is not given here.

Target: T1, D-rhamnosyltransferase WbpZ (Pseudomonas aeruginosa (strain ATCC 15692 / PAO1 / 1C / PRS 101 / LMG12228)) (UniProt Q9HTC0)
T1 sequence (whole entry): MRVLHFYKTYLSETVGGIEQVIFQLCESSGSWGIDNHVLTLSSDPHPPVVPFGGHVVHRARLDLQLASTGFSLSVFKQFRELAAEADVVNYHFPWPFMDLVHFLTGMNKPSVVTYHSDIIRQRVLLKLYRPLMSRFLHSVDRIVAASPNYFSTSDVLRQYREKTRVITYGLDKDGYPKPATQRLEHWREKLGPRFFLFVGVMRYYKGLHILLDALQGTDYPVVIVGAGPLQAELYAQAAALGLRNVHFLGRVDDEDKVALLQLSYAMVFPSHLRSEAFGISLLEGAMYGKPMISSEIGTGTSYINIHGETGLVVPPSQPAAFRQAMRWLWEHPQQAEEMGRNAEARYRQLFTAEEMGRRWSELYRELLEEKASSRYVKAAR
Test: Activity at Pseudomonas aeruginosa PAO1 his-tagged D-rhamnosyltransferase WbpZ expressed in Escherichia coli BL21 at 0.25 mM after 1 hr by MALDI-MS analysis

C[C@H]1O[C@H](OP(=O)(O)OP(=O)(O)OC[C@H]2O[C@@H](n3cnc4c(=O)[nH]c(N)nc43)[C@H](O)[C@@H]2O)[C@@H](O)[C@@H](O)[C@@H]1O
Activity: Active
